Data published in the supplement of paper PMC10307832.

How the values were obtained:
Assay in all cases: relative viability (nuclei count vs DMSO), 5 days (fraction); higher = more cells survive
Bortezomib + Dasatinib = compound: CC(C)C[C@H](NC(=O)[C@H](Cc1ccccc1)NC(=O)c1cnccn1)B(O)O [Bortezomib] + Cc1nc(Nc2ncc(C(=O)Nc3c(C)cccc3Cl)s2)cc(N2CCN(CCO)CC2)n1 [Dasatinib] (partner 0.075 µM)
In short: (§1)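 Relative viability was taken as the ratio of nuclei in treated wells to nuclei in vehicle wells. Lung cancer cell lines in 1536-well plates received compounds by pin tool one day after seeding, either one drug alone or a fixed anchor-drug dose plus five library-drug doses (not always all listed) in √10 steps. Nuclei were counted on 4× images after 5 days of treatment, and values are medians of duplicate plates.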

[1] = compound: CC1=CC(=NN1)NC2=CC(=NC(=N2)/C=C/C3=CC=CC=C3)N4CCN(CC4)C + O=C(CCCCCCC(=O)Nc1ccccc1)NO [Vorinostat] (partner 1 µM)
In short: as §1

Bortezomib + Lapatinib = compound: CC(C)C[C@H](NC(=O)[C@H](Cc1ccccc1)NC(=O)c1cnccn1)B(O)O [Bortezomib] + CS(=O)(=O)CCNCc1ccc(-c2ccc3ncnc(Nc4ccc(OCc5cccc(F)c5)c(Cl)c4)c3c2)o1 [Lapatinib] (partner 2 µM)
In short: as §1

Obatoclax + Lapatinib = compound: COC1=CC(c2cc3ccccc3[nH]2)=N/C1=C\c1[nH]c(C)cc1C [Obatoclax] + CS(=O)(=O)CCNCc1ccc(-c2ccc3ncnc(Nc4ccc(OCc5cccc(F)c5)c(Cl)c4)c3c2)o1 [Lapatinib] (partner 2 µM)
In short: as §1

Cell Line | relative viability (Bortezomib + Dasatinib; first compound 0.0002 µM) | relative viability (Bortezomib + Dasatinib; first compound 0.000632 µM) | relative viability (Bortezomib + Dasatinib; first compound 0.002 µM) | relative viability (Bortezomib + Dasatinib; first compound 0.006325 µM) | relative viability (Bortezomib + Dasatinib; first compound 0.02 µM) | relative viability ([1]; first compound 0.08 µM) | relative viability ([1]; first compound 0.253 µM) | relative viability ([1]; first compound 0.8 µM) | relative viability ([1]; first compound 2.53 µM) | relative viability ([1]; first compound 8 µM) | relative viability (Bortezomib + Lapatinib; first compound 0.0002 µM) | relative viability (Bortezomib + Lapatinib; first compound 0.000632 µM) | relative viability (Bortezomib + Lapatinib; first compound 0.002 µM) | relative viability (Bortezomib + Lapatinib; first compound 0.006325 µM) | relative viability (Bortezomib + Lapatinib; first compound 0.02 µM) | relative viability (Obatoclax + Lapatinib; first compound 0.01 µM) | relative viability (Obatoclax + Lapatinib; first compound 0.03162 µM) | relative viability (Obatoclax + Lapatinib; first compound 0.1 µM) | relative viability (Obatoclax + Lapatinib; first compound 0.3162 µM) | relative viability (Obatoclax + Lapatinib; first compound 1 µM)
NCI-H2342 | 0.286 | 0.306 | 0.322 | 0.334 | 0.349 | 0.685 | 0.765 | 0.698 | 0.722 | 0.312 | – | – | – | – | – | – | – | – | – | –
HCC-827 | 0.302 | 0.285 | 0.259 | 0.34 | 0.199 | 0.282 | 0.908 | 0.823 | 0.773 | 0.215 | 0.217 | 0.183 | 0.187 | 0.222 | 0.15 | 0.183 | 0.195 | 0.226 | 0.229 | 0.271
NCI-H322M | 0.26 | – | 0.253 | 0.229 | 0.286 | 0.881 | 0.948 | 0.891 | 0.31 | 0.303 | 0.573 | – | 0.523 | 0.541 | 0.393 | 0.59 | 0.505 | 0.763 | 0.608 | 0.546
ChaGo-K-1 | 0.535 | 0.539 | 0.558 | 0.207 | 0.13 | 0.799 | 0.8 | 0.613 | 0.343 | 0.186 | – | – | – | – | – | – | – | – | – | –
BEN | 0.262 | 0.408 | 0.343 | 0.246 | 0.249 | 0.544 | 0.53 | 0.563 | 0.47 | 0.334 | 0.72 | 0.74 | 0.61 | 0.339 | 0.114 | 0.726 | 0.696 | 0.305 | 0.792 | 0.698
NCI-H2347 | 0.685 | 0.353 | 0.332 | 0.321 | 0.219 | 0.593 | 0.686 | 0.583 | 0.44 | 0.262 | 0.922 | 1.05 | 0.942 | 0.849 | 0.37 | 0.933 | 0.901 | 0.542 | 0.89 | 0.857
LOU-NH91 | 0.539 | 0.529 | 0.519 | 0.271 | 0.226 | 0.954 | 0.935 | 0.941 | 0.594 | 0.41 | 0.795 | 0.704 | 0.454 | 0.334 | 0.287 | 0.826 | 0.73 | 0.669 | 0.603 | 0.59
NCI-H2228 | 0.475 | 0.464 | 0.328 | 0.0587 | 0.0925 | 0.778 | 0.647 | 0.328 | 0.0662 | 0.0606 | 0.986 | 0.816 | 0.438 | 0.115 | 0.119 | 1.04 | 0.826 | 0.986 | 0.627 | 0.335
NCI-H358 | 0.162 | 0.153 | 0.164 | 0.084 | 0.073 | 0.587 | 0.756 | 0.178 | 0.116 | 0.0712 | 0.367 | 0.431 | 0.43 | 0.144 | 0.155 | 0.482 | 0.33 | 0.598 | 0.336 | 0.208
